In patent publication US5843889A, “Glycopeptide antibiotic derivatives” (Eli Lilly and Company, priority 1997, dated 1998) one finds MIC data, which are given here for 19 compounds.

Values after ≈ are worked out from the molar mass of the structure shown.

Test [1] concerns Entercoccus faecalis 2041. Put plainly: MIC, standard broth micro-dilution assay. It counts as cell-based. As to the method: (§1) The formula I compounds have in vitro and in vivo activity against Gram-positive pathogenic bacteria. The MIC's were determined using a standard broth micro-dilution assay.
Test [2] relates to Entercoccus gallinarum 245. Put plainly: MIC, standard broth micro-dilution assay. It counts as cell-based. As to the method:
as §1
A general note: Broth dilution looks for growth in wells or tubes with falling amounts of substance.

Regarding `CNC(CC(C)C)C(=O)NC1C(=O)NC(CC(N)=O)C(=O)NC2C(=O)NC3C(=O)NC(C(=O)NC(C(=O)O)c4cc(O)cc(O)c4-c4cc3ccc4O)C(OC3CC(C)(N)C(O)C(C)O3)c3ccc(c(Cl)c3)Oc3cc2cc(c3OC2OC(CO)C(O)C(O)C2OC2CC(C)(NCc3cc(-c4ccccc4)ccc3O)C(O)C(C)O2)Oc2ccc(cc2Cl)C1O` (centres unmarked) [Compound 85, 2-hydroxy-5-phenylbenzyl], the values for the MIC in test [1] and in test [2] were ≤ 0.06 µg/mL and 2 µg/mL (≈ 1.13 µM), respectively.
As for `CN[C@H](CC(C)C)C(=O)N[C@H]1C(=O)N[C@@H](CC(N)=O)C(=O)N[C@H]2C(=O)N[C@H]3C(=O)N[C@H](C(=O)N[C@H](C(=O)O)c4cc(O)cc(O)c4-c4cc3ccc4O)[C@H](O[C@H]3C[C@](C)(N)[C@@H](O)[C@H](C)O3)c3ccc(c(Cl)c3)Oc3cc2cc(c3O[C@@H]2O[C@H](CO)[C@@H](O)[C@H](O)[C@H]2O[C@H]2C[C@](C)(NCc3ccc(OCc4ccc(Cl)cc4)cc3)[C@@H](O)[C@H](C)O2)Oc2ccc(cc2Cl)[C@H]1O` [Compound 93, 4-[4-chlorobenzyloxy]benzyl], the MIC is ≤ 0.06 µg/mL in test [1] and 1 µg/mL (≈ 0.549 µM) in test [2].
In the same order, the values of `CN[C@H](CC(C)C)C(=O)N[C@H]1C(=O)N[C@@H](CC(N)=O)C(=O)N[C@H]2C(=O)N[C@H]3C(=O)N[C@H](C(=O)N[C@H](C(=O)O)c4cc(O)cc(O)c4-c4cc3ccc4O)[C@H](O[C@H]3C[C@](C)(N)[C@@H](O)[C@H](C)O3)c3ccc(c(Cl)c3)Oc3cc2cc(c3O[C@@H]2O[C@H](CO)[C@@H](O)[C@H](O)[C@H]2O[C@H]2C[C@](C)(NCc3ccc(Oc4ccc(Cl)cc4)c([N+](=O)[O-])c3)[C@@H](O)[C@H](C)O2)Oc2ccc(cc2Cl)[C@H]1O` [Compound 94, 4-[4-chlorophenoxy]-3-nitrobenzyl] are ≤ 0.06 µg/mL and 2 µg/mL (≈ 1.08 µM).
As for `CN[C@H](CC(C)C)C(=O)N[C@H]1C(=O)N[C@@H](CC(N)=O)C(=O)N[C@H]2C(=O)N[C@H]3C(=O)N[C@H](C(=O)N[C@H](C(=O)O)c4cc(O)cc(O)c4-c4cc3ccc4O)[C@H](O[C@H]3C[C@](C)(N)[C@@H](O)[C@H](C)O3)c3ccc(c(Cl)c3)Oc3cc2cc(c3O[C@@H]2O[C@H](CO)[C@@H](O)[C@H](O)[C@H]2O[C@H]2C[C@](C)(NCc3ccc(Oc4ccc(C)cc4)cc3)[C@@H](O)[C@H](C)O2)Oc2ccc(cc2Cl)[C@H]1O` [Compound 95, 4-[4-methylphenoxy]benzyl], the minimal inhibitory concentration (MIC) in test [1] was ≤ 0.06 µg/mL; in test [2], 1 µg/mL (≈ 0.559 µM).
With `CNC(CC(C)C)C(=O)NC1C(=O)NC(CC(N)=O)C(=O)NC2C(=O)NC3C(=O)NC(C(=O)NC(C(=O)O)c4cc(O)cc(O)c4-c4cc3ccc4O)C(OC3CC(C)(N)C(O)C(C)O3)c3ccc(c(Cl)c3)Oc3cc2cc(c3OC2OC(CO)C(O)C(O)C2OC2CC(C)(NCc3ccc(Oc4ccc(OC)cc4)cc3)C(O)C(C)O2)Oc2ccc(cc2Cl)C1O` (centres unmarked) [Compound 98, 4-[4-methoxyphenoxy]benzyl], the MIC in test [1] is ≤ 0.06 µg/mL; in test [2], 1 µg/mL (≈ 0.554 µM).
For `CNC(CC(C)C)C(=O)NC1C(=O)NC(CC(N)=O)C(=O)NC2C(=O)NC3C(=O)NC(C(=O)NC(C(=O)O)c4cc(O)cc(O)c4-c4cc3ccc4O)C(OC3CC(C)(N)C(O)C(C)O3)c3ccc(c(Cl)c3)Oc3cc2cc(c3OC2OC(CO)C(O)C(O)C2OC2CC(C)(NCc3ccc(CCc4ccccc4)cc3)C(O)C(C)O2)Oc2ccc(cc2Cl)C1O` (centres unmarked) [Compound 100, 4-[(2-phenyl)ethyl]benzyl], the MIC in test [1] is ≤ 0.06 µg/mL; in test [2] it was 2 µg/mL (≈ 1.12 µM).
Take `CNC(CC(C)C)C(=O)NC1C(=O)NC(CC(N)=O)C(=O)NC2C(=O)NC3C(=O)NC(C(=O)NC(C(=O)O)c4cc(O)cc(O)c4-c4cc3ccc4O)C(OC3CC(C)(N)C(O)C(C)O3)c3ccc(c(Cl)c3)Oc3cc2cc(c3OC2OC(CO)C(O)C(O)C2OC2CC(C)(NCc3cncc(-c4ccccc4)c3)C(O)C(C)O2)Oc2ccc(cc2Cl)C1O` (centres unmarked) [Compound 101, 3-[5-phenyl]pyridinylmethyl]: the MIC was ≤ 0.06 µg/mL in test [1] and 8 µg/mL (≈ 4.55 µM) in test [2].
With `CNC(CC(C)C)C(=O)NC1C(=O)NC(CC(N)=O)C(=O)NC2C(=O)NC3C(=O)NC(C(=O)NC(C(=O)O)c4cc(O)cc(O)c4-c4cc3ccc4O)C(OC3CC(C)(N)C(O)C(C)O3)c3ccc(c(Cl)c3)Oc3cc2cc(c3OC2OC(CO)C(O)C(O)C2OC2CC(C)(NCc3ccc(OCc4ccc([N+](=O)[O-])cc4)cc3)C(O)C(C)O2)Oc2ccc(cc2Cl)C1O` (centres unmarked) [Compound 131, 4-[4-nitrobenzyloxy]benzyl], the MIC is ≤ 0.06 µg/mL in test [1] and 2 µg/mL (≈ 1.09 µM) in test [2].
With `CNC(CC(C)C)C(=O)NC1C(=O)NC(CC(N)=O)C(=O)NC2C(=O)NC3C(=O)NC(C(=O)NC(C(=O)O)c4cc(O)cc(O)c4-c4cc3ccc4O)C(OC3CC(C)(N)C(O)C(C)O3)c3ccc(c(Cl)c3)Oc3cc2cc(c3OC2OC(CO)C(O)C(O)C2OC2CC(C)(NCC3CCCCC3)C(O)C(C)O2)Oc2ccc(cc2Cl)C1O` (centres unmarked) [Compound 161, cyclohexylmethyl], the MIC in test [1] is ≤ 0.06 µg/mL; in test [2], 8 µg/mL (≈ 4.74 µM).
As for `CNC(CC(C)C)C(=O)NC1C(=O)NC(CC(N)=O)C(=O)NC2C(=O)NC3C(=O)NC(C(=O)NC(C(=O)O)c4cc(O)cc(O)c4-c4cc3ccc4O)C(OC3CC(C)(N)C(O)C(C)O3)c3ccc(c(Cl)c3)Oc3cc2cc(c3OC2OC(CO)C(O)C(O)C2OC2CC(C)(NCc3ccc4c(c3)CCCC4)C(O)C(C)O2)Oc2ccc(cc2Cl)C1O` (centres unmarked) [Compound 168], the MIC in test [1] was ≤ 0.06 µg/mL; in test [2], 2 µg/mL (≈ 1.15 µM).
In the same order, the values of `CNC(CC(C)C)C(=O)NC1C(=O)NC(CC(N)=O)C(=O)NC2C(=O)NC3C(=O)NC(C(=O)NC(C(=O)O)c4cc(O)cc(O)c4-c4cc3ccc4O)C(OC3CC(C)(N)C(O)C(C)O3)c3ccc(c(Cl)c3)Oc3cc2cc(c3OC2OC(CO)C(O)C(O)C2OC2CC(C)(NCC3=CCC(C(C)C)CC3)C(O)C(C)O2)Oc2ccc(cc2Cl)C1O` (centres unmarked) [Compound 171, 1-cyclohexenyl-4-isopropylmethyl] are ≤ 0.06 µg/mL and 8 µg/mL (≈ 4.63 µM).
For `CNC(CC(C)C)C(=O)NC1C(=O)NC(CC(N)=O)C(=O)NC2C(=O)NC3C(=O)NC(C(=O)NC(C(=O)O)c4cc(O)cc(O)c4-c4cc3ccc4O)C(OC3CC(C)(N)C(O)C(C)O3)c3ccc(c(Cl)c3)Oc3cc2cc(c3OC2OC(CO)C(O)C(O)C2OC2CC(C)(NCCCCc3ccc(OC)cc3)C(O)C(C)O2)Oc2ccc(cc2Cl)C1O` (centres unmarked) [Compound 172, 4-[4-methoxyphenyl]butyl], the MIC in test [1] is ≤ 0.06 µg/mL; in test [2] it was 2 µg/mL (≈ 1.14 µM).
For the compound `CNC(CC(C)C)C(=O)NC1C(=O)NC(CC(N)=O)C(=O)NC2C(=O)NC3C(=O)NC(C(=O)NC(C(=O)O)c4cc(O)cc(O)c4-c4cc3ccc4O)C(OC3CC(C)(N)C(O)C(C)O3)c3ccc(cc3)Oc3cc2cc(c3OC2OC(CO)C(O)C(O)C2OC2CC(C)(NCc3ccc(-c4ccccc4)cc3)C(O)C(C)O2)Oc2ccc(cc2)C1O` (centres unmarked) [Compound 183, 4-phenylbenzyl], the minimum inhibitory concentration (MIC) in test [1] was ≤ 0.06 µg/mL; in test [2], 0.5 µg/mL (≈ 0.296 µM).
Consider `CNC(CC(C)C)C(=O)NC1C(=O)NC(CC(N)=O)C(=O)NC2C(=O)NC3C(=O)NC(C(=O)NC(C(=O)O)c4cc(O)cc(O)c4-c4cc3ccc4O)C(OC3CC(C)(N)C(O)C(C)O3)c3ccc(c(Cl)c3)Oc3cc2cc(c3OC2OC(CO)C(O)C(O)C2OC2CC(C)(NCC3CCC4CCCC43)C(O)C(C)O2)Oc2ccc(cc2Cl)C1O` (stereo not drawn) [Compound 190, cis-bicyclo[3.3.0]octane-2-methyl], for which the MIC in test [1] is ≤ 0.06 µg/mL; in test [2] it was 8 µg/mL (≈ 4.67 µM).
Take `CNC(CC(C)C)C(=O)NC1C(=O)NC(CC(N)=O)C(=O)NC2C(=O)NC3C(=O)NC(C(=O)NC(C(=O)O)c4cc(O)cc(O)c4-c4cc3ccc4O)C(OC3CC(C)(N)C(O)C(C)O3)c3ccc(c(Cl)c3)Oc3cc2cc(c3OC2OC(CO)C(O)C(O)C2OC2CC(C)(NCCCCCCc3ccccc3)C(O)C(C)O2)Oc2ccc(cc2Cl)C1O` (centres unmarked) [Compound 196, 6-phenylhexyl]: the MIC in test [1] is ≤ 0.06 µg/mL; in test [2], 1 µg/mL (≈ 0.571 µM).
In the same order, the values of `CNC(CC(C)C)C(=O)NC1C(=O)NC(CC(N)=O)C(=O)NC2C(=O)NC3C(=O)NC(C(=O)NC(C(=O)O)c4cc(O)cc(O)c4-c4cc3ccc4O)C(OC3CC(C)(N)C(O)C(C)O3)c3ccc(c(Cl)c3)Oc3cc2cc(c3OC2OC(CO)C(O)C(O)C2OC2CC(C)(NCCCC3CCCC3)C(O)C(C)O2)Oc2ccc(cc2Cl)C1O` (centres unmarked) [Compound 208, 3-[cyclopentyl]propyl] are ≤ 0.06 µg/mL and 2 µg/mL (≈ 1.17 µM).
As to `CNC(CC(C)C)C(=O)NC1C(=O)NC(CC(N)=O)C(=O)NC2C(=O)NC3C(=O)NC(C(=O)NC(C(=O)O)c4cc(O)cc(O)c4-c4cc3ccc4O)C(OC3CC(C)(N)C(O)C(C)O3)c3ccc(c(Cl)c3)Oc3cc2cc(c3OC2OC(CO)C(O)C(O)C2OC2CC(C)(NCc3ccc4c(c3)CCc3ccccc3-4)C(O)C(C)O2)Oc2ccc(cc2Cl)C1O` (centres unmarked) [Compound 220], the values for the MIC in test [1] and in test [2] were ≤ 0.06 µg/mL and 0.5 µg/mL (≈ 0.28 µM), respectively.
Consider `CNC(CC(C)C)C(=O)NC1C(=O)NC(CC(N)=O)C(=O)NC2C(=O)NC3C(=O)NC(C(=O)NC(C(=O)O)c4cc(O)cc(O)c4-c4cc3ccc4O)C(OC3CC(C)(N)C(O)C(C)O3)c3ccc(c(Cl)c3)Oc3cc2cc(c3OC2OC(CO)C(O)C(O)C2OC2CC(C)(NCc3ccc(-c4ccc(C)c(C)c4)cc3)C(O)C(C)O2)Oc2ccc(cc2Cl)C1O` (centres unmarked) [Compound 221, 4-[3,4-dimethylphenyl]benzyl], for which the MIC in test [1] is ≤ 0.06 µg/mL; in test [2], 2 µg/mL (≈ 1.12 µM).
On to `CNC(CC(C)C)C(=O)NC1C(=O)NC(CC(N)=O)C(=O)NC2C(=O)NC3C(=O)NC(C(=O)NC(C(=O)O)c4cc(O)cc(O)c4-c4cc3ccc4O)C(OC3CC(C)(N)C(O)C(C)O3)c3ccc(c(Cl)c3)Oc3cc2cc(c3OC2OC(CO)C(O)C(O)C2OC2CC(C)(NCc3ccc(OCCCc4ccccc4)cc3)C(O)C(C)O2)Oc2ccc(cc2Cl)C1O` (centres unmarked) [Compound 223, 4-[3-phenylpropyloxy]benzyl], for which the MIC in test [1] is ≤ 0.06 µg/mL; in test [2] it was 1 µg/mL (≈ 0.55 µM).

What is called MIC is the least concentration at which growth counts as inhibited. Low readings indicate inhibition by little substance, high ones a need for much substance.
